Publication PMC11932996, “aac(6’)-Iaq, a novel aminoglycoside acetyltransferase gene identified from an animal isolate Brucella intermedia DW0551” (Frontiers in Cellular and Infection Microbiology, 2025)

Each compound was assayed on AAC(6’)-Iaq.
Format: biochemical, Brucella intermedia

Compound	Km [µM]
CCN[C@@H]1C[C@H](N)[C@@H](O[C@H]2OC(CN)=CC[C@H]2N)[C@H](O)[C@H]1O[C@H]1OC[C@](C)(O)[C@H](NC)[C@H]1O [netilmicin]	3.83 ± 0.34
NC[C@H]1O[C@H](O[C@H]2[C@H](O)[C@@H](O[C@H]3O[C@H](CO)[C@@H](O)[C@H](N)[C@H]3O)[C@H](N)C[C@@H]2N)[C@H](O)[C@@H](O)[C@@H]1O [kanamycin]	13.3 ± 9.07
NCC[C@H](O)C(=O)N[C@@H]1C[C@H](N)[C@@H](O[C@H]2O[C@H](CN)[C@@H](O)[C@H](O)[C@H]2O)[C@H](O)[C@H]1O[C@H]1O[C@H](CO)[C@@H](O)[C@H](N)[C@H]1O [amikacin]	14.1 ± 0.76
CN[C@@H]1[C@@H](O)[C@@H](O[C@@H]2[C@@H](O)[C@H](O[C@H]3OC(CN)=CC[C@H]3N)[C@@H](N)C[C@H]2N)OC[C@]1(C)O [sisomicin]	4.33 ± 1.32
NC[C@H]1O[C@H](O[C@H]2[C@H](O[C@@H]3O[C@H](CO)[C@@H](O)[C@H]3O)[C@@H](O)[C@H](N)C[C@@H]2N)[C@H](N)[C@@H](O)[C@@H]1O [ribostamycin]	10.1 ± 2.45
